Assay results published in patent publication US20250059182A1, “SOS1 INHIBITORS” (Mirati Therapeutics, Inc., priority 2021, published 2025).
Counter-ions that a name gives are not always drawn. Like-named read-outs stand apart in the source and are kept apart here.

Key:
[1] = target: T1, recombinant human SOS1 polypeptide (amino acids 560-1049) (Homo sapiens, UniProt Q07889); assay: HTRF displacement assay: inhibition of labeled tracer binding to SOS1
T1 construct: corresponding to amino acids 560-1049, expressed in E. Coli; made in house; host or cells: E. coli
T1 sequence (Q07889 560-1049): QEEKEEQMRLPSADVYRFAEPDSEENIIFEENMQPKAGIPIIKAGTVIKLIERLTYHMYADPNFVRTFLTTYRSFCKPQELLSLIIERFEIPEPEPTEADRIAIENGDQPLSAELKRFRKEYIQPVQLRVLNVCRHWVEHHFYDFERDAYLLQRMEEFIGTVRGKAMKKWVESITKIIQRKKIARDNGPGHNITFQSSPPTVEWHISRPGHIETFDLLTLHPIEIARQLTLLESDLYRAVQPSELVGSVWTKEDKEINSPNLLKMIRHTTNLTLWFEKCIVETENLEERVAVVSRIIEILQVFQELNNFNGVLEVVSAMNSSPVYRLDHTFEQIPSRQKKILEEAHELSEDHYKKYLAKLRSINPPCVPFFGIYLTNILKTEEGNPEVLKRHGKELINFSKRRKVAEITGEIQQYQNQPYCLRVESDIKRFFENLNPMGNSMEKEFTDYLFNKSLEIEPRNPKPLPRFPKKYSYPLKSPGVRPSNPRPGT

pERK in MKN1 cells = assay: pERK inhibition, In-Cell Western (LI-COR Odyssey), MKN1 cells; format: cell-based; conditions: Homo sapiens
Procedure, shortened: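 MKN1 cells were exposed for about 0.5–1 h at 37 °C to nine 3-fold dilutions starting at 10 µM. Cells were then fixed in formaldehyde, permeabilised with methanol, and immunostained for pERK and GAPDH with near-infrared secondary antibodies. GAPDH-normalised pERK signal relative to vehicle gave % inhibition, from which IC50 was fitted.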

[2] = Table A1, Morrison equation for competitive binding
[3] = MKN-1, Table B1, MKN1 or H358 cells (table does not say which), 0.5-1 hour incubation, read-out: IC50 (nM), pERK inhibition
[4] = Table A, Morrison equation for competitive binding
[5] = MKN-1, Table B, MKN1 or H358 cells (table does not say which), 0.5-1 hour incubation, read-out: IC50 (nM), pERK inhibition

SMILES | Ki [1, 2] | IC50 (pERK in MKN1 cells; [3]) | Ki [1, 4] | IC50 (pERK in MKN1 cells; [5]) | IC50 (pERK in MKN1 cells; MKN-1, read-out: IC50 (nM), pERK inhibition)
Cc1c(C#N)cccc1[C@@H](C)Nc1nnc(C)c2cnc(N3CCc4c(cnn4C)C3)cc12 [Example P-39, (R)-2-methyl-3-(1-((4-methyl-7-(1-methyl-1,4,6,7-tetrahydro-5H-pyrazolo[4,3-c]pyridin-5-yl)pyrido[3,4-d]pyridazin-1-yl)amino)ethyl)benzonitrile] | 1.1 nM | 96.9 nM |  |  | 
Cc1nnc(N[C@H](C)c2cccc(C(F)(F)F)c2F)c2cc(N(C)[C@@H]3CCN(C(C)C)C3)ncc12 [Example 1-76, N^1-((R)-1-(2-fluoro-3-(trifluoromethyl)phenyl)ethyl)-N^7-((R)-1-isopropylpyrrolidin-3-yl)-N^7,4-dimethylpyrido[3,4-d]pyridazine-1,7-diamine] |  |  | 0.367 nM | 119 nM | 
Cc1c(C#N)cccc1[C@@H](C)Nc1nnc(C)c2cc(F)c(N3C[C@@H]4[C@H]3CCN4C)cc12 (single isomer, unassigned) [Example 9-2] |  |  | 2 nM | 30 nM | 
Cc1nnc(N[C@H](C)c2cccc(C(F)(F)F)c2F)c2cc(N(C)C3CCN(C)CC3)ncc12 [Example 1-83, (R)-N^1-(1-(2-fluoro-3-(trifluoromethyl)phenyl)ethyl)-N^7,4-dimethyl-N^7-(1-methylpiperidin-4-yl)pyrido[3,4-d]pyridazine-1,7-diamine] |  |  | 0.788 nM | 82.8 nM | 
Cc1ccccc1[C@@H](C)Nc1nnc(C)c2cnc(N3CCOCC3)cc12 [Example P-212, (R)-4-methyl-7-morpholino-N-(1-(o-tolyl)ethyl)pyrido[3,4-d]pyridazin-1-amine] | 54.8 nM | 894 nM |  |  | 
Cc1c(C#N)cccc1[C@@H](C)Nc1nnc(C)c2cnc(N(C)[C@H]3CCCN(C)C3)cc12 [Example 1-81, 2-methyl-3-((R)-1-((4-methyl-7-(methyl((S)-1-methylpiperidin-3-yl)amino)pyrido[3,4-d]pyridazin-1-yl)amino)ethyl)benzonitrile] |  |  | 0.865 nM | 62.4 nM | 
COCCN(C)c1cc2c(N[C@H](C)c3cccc(C#N)c3C)nnc(C)c2cc1F [Example 4-17, (R)-3-(1-((6-fluoro-7-((2-methoxyethyl)(methyl)amino)-4-methylphthalazin-1-yl)amino)ethyl)-2-methylbenzonitrile] |  |  | 9.16 nM | 814 nM | 
Cc1nnc(N[C@H](C)c2cccc(C(F)(F)F)c2F)c2cc(N(C)[C@@H]3CCOC3)ncc12 [Example 1-73, N^1-((R)-1-(2-fluoro-3-(trifluoromethyl)phenyl)ethyl)-N^7,4-dimethyl-N^7-((R)-tetrahydrofuran-3-yl)pyrido[3,4-d]pyridazine-1,7-diamine] |  |  | 1.16 nM | 54.8 nM | 
Cc1c([C@@H](C)Nc2nnc(C)c3cnc(N4CCOCC4)cc23)cc(N)nc1C(F)(F)F [Example 1-105, (R)-N-(1-(6-amino-3-methyl-2-(trifluoromethyl)pyridin-4-yl)ethyl)-4-methyl-7-morpholinopyrido[3,4-d]pyridazin-1-amine] |  |  | 4.39 nM | 31.1 nM | 
Cc1c(C#N)cccc1[C@@H](C)Nc1nnc(C)c2cc(F)c(N3C[C@H]4[C@@H]3CCN4C)cc12 (single isomer, unassigned) [Example 9-1] |  |  | 1 nM | 15.5 nM | 
Cc1nnc(N[C@H](C)c2cccc(C(F)(F)F)c2F)c2cc(N3CC4(CN(C)C4)C3)ncc12 [Example 1-23, (R)-N-(1-(2-fluoro-3-(trifluoromethyl)phenyl)ethyl)-4-methyl-7-(6-methyl-2,6-diazaspiro[3.3]heptan-2-yl)pyrido[3,4-d]pyridazin-1-amine] |  |  | 0.21 nM | 59.1 nM | 
Cc1c(C#N)cccc1[C@@H](C)Nc1nnc(C)c2cnc(N3CCN(C(=O)[C@H]4CCCN4)CC3)cc12 [Example 2-3, 3-((R)-1-((7-(4-(D-prolyl)piperazin-1-yl)-4-methylpyrido[3,4-d]pyridazin-1-yl)amino)ethyl)-2-methylbenzonitrile] |  |  | 0.32 nM | 656 nM | 
Cc1nnc(N[C@H](C)c2cccc(C(F)(F)F)c2F)c2cc(N(C)C3CCN(C)CC3)c(F)cc12 [Example 4-23, (R)-6-fluoro-N^1-(1-(2-fluoro-3-(trifluoromethyl)phenyl)ethyl)-N^7,4-dimethyl-N^7-(1-methylpiperidin-4-yl)phthalazine-1,7-diamine] |  |  | 1.2 nM | 25 nM | 
Cc1c(C#N)cccc1[C@@H](C)Nc1nnc(C)c2cc(F)c(-c3ccc(=O)n(C)c3)cc12 [Example P-172, (R)-3-(1-((6-fluoro-4-methyl-7-(1-methyl-6-oxo-1,6-dihydropyridin-3-yl)phthalazin-1-yl)amino)ethyl)-2-methylbenzonitrile] | 12.5 nM | 457 nM |  |  | 
CC(=O)N1CC2(CCN2c2cc3c(N[C@H](C)c4cccc(C#N)c4C)nnc(C)c3cn2)C1 [Example P-215, (R)-3-(1-((7-(6-acetyl-1,6-diazaspiro[3.3]heptan-1-yl)-4-methylpyrido[3,4-d]pyridazin-1-yl)amino)ethyl)-2-methylbenzonitrile] | 2.23 nM | 38.7 nM |  |  | 
Cc1c(C#N)cccc1[C@@H](C)Nc1nnc(C)c2cnc(N3CC[C@@H](N)C3)cc12 [Example 1-8, 3-((R)-1-((7-((R)-3-aminopyrrolidin-1-yl)-4-methylpyrido[3,4-d]pyridazin-1-yl)amino)ethyl)-2-methylbenzonitrile] |  |  | 1.54 nM | 274 nM | 
Cc1c(C#N)cccc1[C@@H](C)Nc1nnc(C)c2cnc(N(C)[C@H]3CCN(C)C3)cc12 [Example 1-5, 2-methyl-3-((R)-1-((4-methyl-7-(methyl((S)-1-methylpyrrolidin-3-yl)amino)pyrido[3,4-d]pyridazin-1-yl)amino)ethyl)benzonitrile] |  |  | 0.683 nM | 57.2 nM | 
Cc1c(C#N)cccc1[C@@H](C)Nc1nnc(C)c2cc(Cl)c(N(C)C[C@H]3CCCN3C)cc12 [Example P-196, 3-((R)-1-((6-chloro-4-methyl-7-(methyl(((R)-1-methylpyrrolidin-2-yl)methyl)amino)phthalazin-1-yl)amino)ethyl)-2-methylbenzonitrile formic acid salt] | 5.98 nM |  |  |  | 584 nM
Cc1c(C#N)cccc1[C@@H](C)Nc1nnc(C)c2cnc(N3CC4(CC(N(C)C)C4)C3)cc12 [Example 1-63, (R)-3-(1-((7-(6-(dimethylamino)-2-azaspiro[3.3]heptan-2-yl)-4-methylpyrido[3,4-d]pyridazin-1-yl)amino)ethyl)-2-methylbenzonitrile] |  |  | 0.664 nM | 48.9 nM | 
Cc1nnc(N[C@H](C)c2cccc3c2OCC3(F)F)c2cc(N3CC4(CN(C)C4)C3)ncc12 [Example 1-99, (R)-N-(1-(3,3-difluoro-2,3-dihydrobenzofuran-7-yl)ethyl)-4-methyl-7-(6-methyl-2,6-diazaspiro[3.3]heptan-2-yl)pyrido[3,4-d]pyridazin-1-amine] |  |  | 0.357 nM | 19.1 nM | 
Cc1c(C#N)cccc1[C@@H](C)Nc1nnc(C)c2cc(F)c(N(C)[C@@H]3CCN(C)C3)cc12 [Example P-178, 3-((R)-1-((6-fluoro-4-methyl-7-(methyl((R)-1-methylpyrrolidin-3-yl)amino)phthalazin-1-yl)amino)ethyl)-2-methylbenzonitrile] | 1.1 nM | 54.7 nM |  |  | 
Cc1c(C#N)cccc1[C@@H](C)Nc1nnc(C)c2cnc(N3CCc4ncn(C)c4C3)cc12 [Example P-57, (R)-2-methyl-3-(1-((4-methyl-7-(3-methyl-3,4,6,7-tetrahydro-5H-imidazo[4,5-c]pyridin-5-yl)pyrido[3,4-d]pyridazin-1-yl)amino)ethyl)benzonitrile] | 1.17 nM | 914 nM |  |  | 
Cc1c(C#N)cccc1[C@@H](C)Nc1nnc(C)c2cnc(N3CCCC34CN(C)C4)cc12 [Example 1-22, (R)-2-methyl-3-(1-((4-methyl-7-(2-methyl-2,5-diazaspiro[3.4]octan-5-yl)pyrido[3,4-d]pyridazin-1-yl)amino)ethyl)benzonitrile] |  |  | 0.248 nM | 33.2 nM | 
Cc1c(C#N)cccc1[C@@H](C)Nc1nnc(C)c2cnc(N3CCN(CCCF)CC3)cc12 [Example P-229, (R)-3-(1-((7-(4-(3-fluoropropyl)piperazin-1-yl)-4-methylpyrido[3,4-d]pyridazin-1-yl)amino)ethyl)-2-methylbenzonitrile] | 0.671 nM | 59.3 nM |  |  | 
Cc1c(C#N)cccc1[C@@H](C)Nc1nnc(C)c2cc(F)c(N3CC4(CN(C)C4)C3)cc12 [Example 4-9, (R)-3-(1-((6-fluoro-4-methyl-7-(6-methyl-2,6-diazaspiro[3.3]heptan-2-yl)phthalazin-1-yl)amino)ethyl)-2-methylbenzonitrile] |  |  | 0.343 nM | 24.1 nM | 
